The values that follow come from paper PMC10584170, “Machine learning-based phenotypic imaging to characterise the targetable biology of Plasmodium falciparum male gametocytes for the development of transmission-blocking antimalarials” (PLOS Pathogens, 2023).

The inhibition is the change of the read-out against control, counted positive when it falls. The IC50 is the concentration needed to halve the response being measured.

SMILES strings stand for the structures. Read-outs that look alike come from different tables or passages of the source.

The subject of series [1] is P. falciparum male gametocytes. The series can be described thus: P. falciparum Dual Gamete Formation Assay (PfDGFA), male readout (exflagellation). The format is cell-based, Plasmodium falciparum NF54. The note with it: for HitlevelM: number of replicates with >50% inhibition in the male readout; for Selectivity Ratio M: HepG2 Tox50 versus male IC50; for IC50: PfDGFA, 24 h incubation with gametocytes before induction, exflagellation readout, read-out: Male IC50. Summed up: (§1)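 Male and female gamete formation were quantified by microscopy image analysis following 24 h incubation of mature NF54 gametocytes with compound and activation at 28°C with xanthurenic acid.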

The next series deals with HepG2 cells. As to the kind of experiment: HepG2 cytotoxicity counter-screen. To be noted: cytotoxic activity against HepG2 cells. On the technique in general: Counterscreens check selectivity or assay interference.
Series [2] relates to P. falciparum female gametocytes. As to the kind of experiment: P. falciparum Dual Gamete Formation Assay (PfDGFA), female readout (Pfs25-positive female gametes). In kind it is cell-based, Plasmodium falciparum NF54. To be noted: for HitlevelF: number of replicates with >50% inhibition in the female readout; for Selectivity ratio F: HepG2 Tox50 versus female IC50; for IC50: PfDGFA, 24 h incubation with gametocytes before induction, female gamete readout, read-out: Female IC50. Summed up:
as §1

Setting [3] is: PfDGFA at 2µM, 24h preincubation with gametocytes, average of replicates.
Where [4] appears, read: PfDGFA at 2µM, 24h preincubation with gametocytes, replicate R1.
Where [5] appears, read: PfDGFA at 2µM, 24h preincubation with gametocytes, replicate R4.
Where [6] appears, read: 2µM, 24h preincubation with gametocytes, average of replicates.
Where [7] appears, read: 2µM, 24h preincubation with gametocytes, replicate R1.
[8] abbreviates: 2µM, 24h preincubation with gametocytes, replicate R3.
[9] abbreviates: 2µM, 24h preincubation with gametocytes, replicate R4.

In turn, `CC(C)(CNC(=O)[C@H]1CCCCN1)c1nc(-c2ccc(Cl)c(O)c2)c(-c2ccncc2)[nH]1.Cl` [TCMDC-141070] showed a HitlevelM in series [1] (2µM, 24h preincubation) of 1. The “Selectivity Ratio M” value in series [1] came out at 32.01. The inhibition at 2 µM was 20.5% in series [1] (Plasmodium falciparum, 2µM, 24h preincubation with gametocytes prior to induction of gametogenesis, average of replicates, read-out: Average inhibition male (%)); -8.8% in series [1] (Plasmodium falciparum, 2µM, 24h preincubation with gametocytes prior to induction of gametogenesis, replicate R1, read-out: % inhibition male (individual replicates) R1); -11.5% in series [1] (Plasmodium falciparum, 2µM, 24h preincubation with gametocytes prior to induction of gametogenesis, replicate R2, read-out: % inhibition male (individual replicates) R2); 48.5% in series [1] (Plasmodium falciparum, 2µM, 24h preincubation with gametocytes prior to induction of gametogenesis, replicate R3, read-out: % inhibition male (individual replicates) R3); 54% in series [1] (Plasmodium falciparum, 2µM, 24h preincubation with gametocytes prior to induction of gametogenesis, replicate R4, read-out: % inhibition male (individual replicates) R4); 83.6% in series [2] (Plasmodium falciparum, 2µM, 24h preincubation with gametocytes prior to induction of gametogenesis, average of replicates, read-out: Average inhibition female (%)). Moreover, the inhibition at 2 µM in series [2] (Plasmodium falciparum, 2µM, 24h preincubation with gametocytes prior to induction of gametogenesis, replicate R1, read-out: % inhibition female (individual replicates) R1) is 71.8%; in series [2] (Plasmodium falciparum, 2µM, 24h preincubation with gametocytes prior to induction of gametogenesis, replicate R2, read-out: % inhibition female (individual replicates) R2) it was 79.1%; in series [2] (Plasmodium falciparum, 2µM, 24h preincubation with gametocytes prior to induction of gametogenesis, replicate R3, read-out: % inhibition female (individual replicates) R3) it was 95.8%; in series [2] (Plasmodium falciparum, 2µM, 24h preincubation with gametocytes prior to induction of gametogenesis, replicate R4, read-out: % inhibition female (individual replicates) R4), 87.7%. For the same compound, the figures for the IC50 in series [1] (Plasmodium falciparum) and in series [2] (Plasmodium falciparum) were 1630 nM and 1020 nM, respectively. Also, the Tox50 in the series with HepG2 cells was 52.33 µM. Further, the HitlevelF in series [2] (2µM, 24h preincubation) is given as 4. In series [2], the “Selectivity ratio F” value is 51.37.

Regarding `Cl.NCC1(c2nc(-c3ccc(Cl)c(O)c3)c(-c3ccncc3)[nH]2)CCCCC1` [TCMDC-141154], the “Selectivity Ratio M” value in series [1] was found to be 11.58. Besides, the inhibition at 2 µM in series [1] (Plasmodium falciparum, 2µM, 24h preincubation with gametocytes, average of replicates, read-out: Average inhibition male (%)) worked out at 99.7%; in series [1] (Plasmodium falciparum, 2µM, 24h preincubation with gametocytes, replicate R1, read-out: % inhibition male (individual replicates) R1), 95.4%; in series [1] (Plasmodium falciparum, 2µM, 24h preincubation with gametocytes, replicate R2, read-out: % inhibition male (individual replicates) R2) it was 103%; in series [1] (Plasmodium falciparum, 2µM, 24h preincubation with gametocytes, replicate R3, read-out: % inhibition male (individual replicates) R3), 95.7%; in series [1] (Plasmodium falciparum, 2µM, 24h preincubation with gametocytes, replicate R4, read-out: % inhibition male (individual replicates) R4), 105%; in series [2] (Plasmodium falciparum, 2µM, 24h preincubation with gametocytes, average of replicates, read-out: Average inhibition female (%)) it was 94.3%. Further, the inhibition at 2 µM in series [2] (Plasmodium falciparum, 2µM, 24h preincubation with gametocytes, replicate R1, read-out: % inhibition female (individual replicates) R1) was found to be 92.5%; in series [2] (Plasmodium falciparum, 2µM, 24h preincubation with gametocytes, replicate R2, read-out: % inhibition female (individual replicates) R2), 91.3%; in series [2] (Plasmodium falciparum, 2µM, 24h preincubation with gametocytes, replicate R3, read-out: % inhibition female (individual replicates) R3), 101%; in series [2] (Plasmodium falciparum, 2µM, 24h preincubation with gametocytes, replicate R4, read-out: % inhibition female (individual replicates) R4) it was 92.3%. Besides, the IC50 in series [1] (Plasmodium falciparum) was 850 nM; in series [2] (Plasmodium falciparum), 430 nM. In addition, the Tox50 in the series on HepG2 cells stood at 9.89 µM. Also, the “Selectivity ratio F” value in series [2] is reported as 23.04.

`CNC(=O)c1cnc(Nc2ccc(N3CCN(C)CC3)cc2)nc1Nc1ccccc1OC.O=C(O)C(F)(F)F` [TCMDC-141382]: in series [1], the “Selectivity Ratio M” value came to 29.58. Besides, the inhibition at 2 µM stood at 82.8% in series [1] (Plasmodium falciparum, PfDGFA at 2µM, 24h preincubation with gametocytes, average of replicates, read-out: Average inhibition male (%)); 83.2% in series [1] (Plasmodium falciparum, PfDGFA at 2µM, 24h preincubation with gametocytes, replicate R1, read-out: % inhibition male (individual replicates) R1); 85.9% in series [1] (Plasmodium falciparum, PfDGFA at 2µM, 24h preincubation with gametocytes, replicate R2, read-out: % inhibition male (individual replicates) R2); 82.1% in series [1] (Plasmodium falciparum, PfDGFA at 2µM, 24h preincubation with gametocytes, replicate R3, read-out: % inhibition male (individual replicates) R3); 80.2% in series [1] (Plasmodium falciparum, PfDGFA at 2µM, 24h preincubation with gametocytes, replicate R4, read-out: % inhibition male (individual replicates) R4); 0.5% in series [2] (Plasmodium falciparum, PfDGFA at 2µM, 24h preincubation with gametocytes, average of replicates, read-out: Average inhibition female (%)). Further, the inhibition at 2 µM was -10.9% in series [2] (Plasmodium falciparum, PfDGFA at 2µM, 24h preincubation with gametocytes, replicate R1, read-out: % inhibition female (individual replicates) R1); 1.1% in series [2] (Plasmodium falciparum, PfDGFA at 2µM, 24h preincubation with gametocytes, replicate R2, read-out: % inhibition female (individual replicates) R2); 15.6% in series [2] (Plasmodium falciparum, PfDGFA at 2µM, 24h preincubation with gametocytes, replicate R3, read-out: % inhibition female (individual replicates) R3); -3.9% in series [2] (Plasmodium falciparum, PfDGFA at 2µM, 24h preincubation with gametocytes, replicate R4, read-out: % inhibition female (individual replicates) R4). Besides, the IC50 in series [1] (Plasmodium falciparum) is 1200 nM; in series [2] (Plasmodium falciparum) it was over 10000 nM. Also, the HitlevelM in series [1] (2µM) worked out at 4. Further, the Tox50 with HepG2 cells came out at 35.63 µM. Further, the “Selectivity ratio F” value in series [2] worked out at 3.56. The compound further came in with a HitlevelF in series [2] (2µM) of 0.

For `CN(C)CC(O)COc1ccc(Nc2ncc([N+](=O)[O-])c(Nc3ccccc3O)n2)cc1.O=C(O)C(F)(F)F` (centres unmarked) [TCMDC-141399], in series [1], the “Selectivity Ratio M” value amounted to 1.47 and the IC50 was determined as 1830 nM. Moreover, the “Average inhibition male (%)” value in series [1] (setting [3]) turned out to be 87.0%. Moreover, the “% inhibition male (individual replicates) R1” value in series [1] (setting [4]) was 80.9%. The “% inhibition male (individual replicates) R4” value in series [1] (setting [5]) was determined as 85.8%. Further, the HitlevelM in series [1] (2µM) amounted to 3. In the series with HepG2 cells, this compound came in with a Tox50 of 2.69 µM. In series [2], the “Selectivity ratio F” value is 0.27. Besides, the “Average inhibition female (%)” value in series [2] (setting [3]) was found to be 9.6%. Besides, the “% inhibition female (individual replicates) R1” value in series [2] (setting [4]) is given as 0.18%. Moreover, the “% inhibition female (individual replicates) R3” value in series [2] (PfDGFA at 2µM, 24h preincubation with gametocytes, replicate R3) is reported as 2.4%. The “% inhibition female (individual replicates) R4” value in series [2] (setting [5]) is on record as 9.1%. The compound further came in with a HitlevelF in series [2] (2µM) of 0.

Turning to `Cc1ccc(Cn2nc(Cl)c(N3CCNCC3)cc2=O)cc1NC(=O)Nc1ccc(-c2ccccc2)cc1.O=C(O)C(F)(F)F` [TCMDC-141698], in series [1] (setting [6]), the “Average inhibition male (%)” value is 96.8%. In addition, the “% inhibition male (individual replicates) R1” value in series [1] (setting [7]) is 94.1%. In series [1] (setting [8]), the “% inhibition male (individual replicates) R3” value was determined as 94.5%. Besides, the “% inhibition male (individual replicates) R4” value in series [1] (setting [9]) is 100.9%. Besides, in series [1], the “Selectivity Ratio M” value stood at 3.32 and the IC50 was determined as 1200 nM. For the same compound, in the series with HepG2 cells, the Tox50 worked out at 3.97 µM. Further, the “Average inhibition female (%)” value in series [2] (setting [6]) was found to be 53.1%. For the same compound, in series [2] (setting [7]), the “% inhibition female (individual replicates) R1” value was found to be 36.8%. Further, the “% inhibition female (individual replicates) R3” value in series [2] (setting [8]) amounted to 40.3%. Further, the “% inhibition female (individual replicates) R4” value in series [2] (setting [9]) came out at 66.3%. In addition, in series [2], the “Selectivity ratio F” value turned out to be 3.54 and the IC50 was found to be 1120 nM.

In the case of `Cc1c(Cn2nc(Cl)c(N3CCNCC3)cc2=O)cccc1NC(=O)Nc1ccc(-c2ccccc2)cc1.O=C(O)C(F)(F)F` [TCMDC-141699], the “Average inhibition male (%)” value in series [1] (setting [6]) was found to be 91.5%. In addition, the “% inhibition male (individual replicates) R1” value in series [1] (setting [7]) is 87.4%. Besides, the “% inhibition male (individual replicates) R3” value in series [1] (setting [8]) came to 92.1%. For the same compound, in series [1] (setting [9]), the “% inhibition male (individual replicates) R4” value is reported as 92.9%. Also, in series [1], the “Selectivity Ratio M” value is listed as 2.05 and the IC50 turned out to be 580 nM. Further, in the series with HepG2 cells, the Tox50 is listed as 1.2 µM. In series [2] (setting [6]), the “Average inhibition female (%)” value is 53.7%. Moreover, the “% inhibition female (individual replicates) R1” value in series [2] (setting [7]) was 31.7%. Moreover, in series [2] (setting [8]), the “% inhibition female (individual replicates) R3” value came out at 37.6%. Besides, in series [2] (setting [9]), the “% inhibition female (individual replicates) R4” value is listed as 62.1%. In addition, in series [2], the “Selectivity ratio F” value is 2.15 and the concentration for half-maximal inhibition (IC50) amounted to 560 nM.

For the compound `Cl.O=S(=O)(Nc1cc2c(cc1OCCCN1CCCCC1)CCNCC2)c1ccc(-c2ccc(Cl)cc2)cc1` [TCMDC-141753], in series [1] (setting [6]), the “Average inhibition male (%)” value is 98.2%. Moreover, the “% inhibition male (individual replicates) R1” value in series [1] (setting [7]) amounted to 97.5%. Besides, the “% inhibition male (individual replicates) R3” value in series [1] (setting [8]) amounted to 95.7%. For the same compound, in series [1] (setting [9]), the “% inhibition male (individual replicates) R4” value is on record as 101.6%. Moreover, in series [1], the “Selectivity Ratio M” value came to 5.89 and the 50% inhibitory concentration (IC50) was 1220 nM. In the series on HepG2 cells, this compound displayed a Tox50 of 7.17 µM. In series [2] (setting [6]), the “Average inhibition female (%)” value was found to be 56.2%. Also, the “% inhibition female (individual replicates) R1” value in series [2] (setting [7]) is listed as 37.1%. The “% inhibition female (individual replicates) R3” value in series [2] (setting [8]) came to 44.2%. In series [2] (setting [9]), the “% inhibition female (individual replicates) R4” value worked out at 65.5%. In series [2], the “Selectivity ratio F” value was determined as 1.62 and the half-inhibitory concentration (IC50) was determined as 4420 nM.
